Test results as given in patent publication US20190031667A1, “PESTICIDALLY ACTIVE HETEROCYCLIC DERIVATIVES WITH SULPHUR CONTAINING SUBSTITUENTS” (SYNGENTA PARTICIPATIONS AG, priority 2016, published 2019).

What was measured:
Type in all cases: in vivo
[1] = test system: Myzus persicae (Green Peach Aphid); assay: Example B5: Activity against Myzus persicae, sprayed sunflower leaf discs; details: foliar, 144 h, application rate 200 ppm, mixed-age aphids, 6 days after infestation
Experimental: Example B5: Activity Against Myzus persicae (Green Peach Aphid)
Sunflower leaf discs were placed onto agar in a 24-well microtiter plate and sprayed with aqueous test solutions prepared from 10′000 ppm DMSO stock solutions. After drying, the leaf discs were infested with an aphid population of mixed ages. The samples were assessed for mortality 6 days after infestation.

[2] = test system: Spodoptera littoralis (Egyptian cotton leaf worm); assay: Example B2: Activity against Spodoptera littoralis, systemic via lettuce roots in agar; details: 144 h, test rate 12.5 ppm, uptake by lettuce roots from agar, 6 days after infestation, read-out: effect in at least one of the three categories (mortality, anti-feeding, or growth inhibition)
From the text: Example B2: Activity against Spodoptera littoralis (Egyptian cotton leaf worm) Test compounds were applied by pipette from 10′000 ppm DMSO stock solutions into 24-well plates and mixed with agar. Lettuce seeds were placed onto the agar and the multi well plate was closed by another plate which contained also agar. After 7 days the compound was absorbed by the roots and the lettuce grew into the lid plate. The lettuce leaves were then cut off into the lid plate. Spodoptera eggs were pipetted through a plastic stencil onto a humid gel blotting paper and the lid plate was closed with it. The samples were assessed for mortality, anti-feedant effect and growth inhibition in comparison to untreated samples 6 days after infestation.

[3] = test system: Plutella xylostella (Diamond Back Moth); assay: Example B3: Activity against Plutella xylostella, artificial diet; details: 120 h, application rate 200 ppm, L2 larvae, 5 days after infestation, read-out: effect in at least one of the two categories (mortality or growth inhibition)
Experimental: Example B3: Activity Against Plutella xylostella (Diamond Back Moth)
(§1) 24-well microtiter plates with artificial diet were treated with aqueous test solutions prepared from 10′000 ppm DMSO stock solutions by pipetting. After drying, the plates were infested with L2 larvae (10 to 15 per well). The samples were assessed for mortality and growth inhibition in comparison to untreated samples 5 days after infestation.

[4] = test system: Spodoptera littoralis (Egyptian cotton leaf worm); assay: Example B1: Activity against Spodoptera littoralis, sprayed cotton leaf discs; details: foliar, 72 h, application rate 200 ppm, L1 larvae, 3 days after infestation
Experimental: Example B1: Activity against Spodoptera littoralis (Egyptian cotton leaf worm) Cotton leaf discs were placed onto agar in 24-well microtiter plates and sprayed with aqueous test solutions prepared from 10′000 ppm DMSO stock solutions. After drying the leaf discs were infested with five L1 larvae. The samples were assessed for mortality, anti-feeding effect, and growth inhibition in comparison to untreated samples 3 days after infestation. Control of Spodoptera littoralis by a test sample is given when at least one of the categories mortality, anti-feedant effect, and growth inhibition is higher than the untreated sample.

[5] = test system: Euschistus heros (Neotropical Brown Stink Bug); assay: Example B8: Activity against Euschistus heros, sprayed soybean leaves; details: 120 h, application rate 200 ppm, N2 nymphs, 5 days after infestation, read-out: effect in at least one of the two categories (mortality or growth inhibition)
Experimental: Example B8: Activity Against Euschistus heros (Neotropical Brown Stink Bug)
Soybean leaves on agar in 24-well microtiter plates were sprayed with aqueous test solutions prepared from 10′000 ppm DMSO stock solutions. After drying the leaves were infested with N2 nymphs. The samples were assessed for mortality and growth inhibition in comparison to untreated samples 5 days after infestation.

[6] = test system: Myzus persicae (Green Peach Aphid); assay: Example B6: Activity against Myzus persicae, systemic via pea seedling roots; details: 144 h, test rate 24 ppm, roots of infested pea seedlings in test solution, 6 days
Experimental: Example B6: Activity Against Myzus persicae (Green Peach Aphid)
Roots of pea seedlings infested with an aphid population of mixed ages were placed directly in the aqueous test solutions prepared from 10′000 DMSO stock solutions. The samples were assessed for mortality 6 days after placing seedlings in test solutions.

[7] = test system: Diabrotica Balteata (Corn Root Worm); assay: Example B4: Activity against Diabrotica balteata, sprayed maize sprouts; details: 96 h, application rate 200 ppm, L2 larvae, 4 days after infestation, read-out: effect in at least one of the two categories (mortality or growth inhibition)
Experimental: Example B4: Activity Against Diabrotica Balteata (Corn Root Worm)
as §1, with “Maize sprouts, placed onto an agar layer in 24-well” for “24-well”, “plates” for “plates with artificial diet”, “spraying.” for “pipetting.”, “(6” for “(10”, “10” for “15”, “4” for “5”

[8] = test system: Bemisia tabaci (Cotton White Fly); assay: Example B7: Activity against Bemisia tabaci, sprayed cotton leaf discs; details: foliar, 144 h, application rate 200 ppm, adult white flies, 6 days after incubation
Experimental: Example B7: Activity Against Bemisia tabaci (Cotton White Fly)
Cotton leaf discs were placed onto agar in 24-well microtiter plates and sprayed with aqueous test solutions prepared from 10′000 ppm DMSO stock solutions. After drying the leaf discs were infested with adult white flies. The samples were checked for mortality 6 days after incubation.

CCS(=O)(=O)c1ccc(N)nc1-n1cc2cnc(C(F)(F)F)cc2n1 [Compound P16, 5-ethylsulfonyl-6-[6-(trifluoromethyl)pyrazolo[4,3-c]pyridin-2-yl]pyridin-2-amine]
≥ 80%: mortality at 200 ppm [1] | percent effect (mortality, anti-feeding or growth inhibition) at 12.5 ppm [2] | percent effect (mortality or growth inhibition) at 200 ppm [3] | percent control (mortality, anti-feedant effect or growth inhibition) at 200 ppm [4] | percent effect (mortality or growth inhibition) at 200 ppm [5] | mortality at 24 ppm [6] | percent effect (mortality or growth inhibition) at 200 ppm [7]

CCS(=O)(=O)c1cc(Cl)c(N)nc1-n1cc2cnc(C(F)(F)F)cc2n1 [Compound P19, 3-chloro-5-ethylsulfonyl-6-[6-(trifluoromethyl)pyrazolo[4,3-c]pyridin-2-yl]pyridin-2-amine]
≥ 80%: mortality at 200 ppm [1] | percent effect (mortality, anti-feeding or growth inhibition) at 12.5 ppm [2] | percent effect (mortality or growth inhibition) at 200 ppm [3] | percent control (mortality, anti-feedant effect or growth inhibition) at 200 ppm [4] | percent effect (mortality or growth inhibition) at 200 ppm [5] | percent effect (mortality or growth inhibition) at 200 ppm [7]

CCS(=O)(=O)c1ccc(-n2cnc(Cl)n2)nc1-n1cc2cnc(C(F)(F)F)cc2n1 [Compound P25]
≥ 80%: mortality at 200 ppm [1] | percent effect (mortality or growth inhibition) at 200 ppm [3] | percent control (mortality, anti-feedant effect or growth inhibition) at 200 ppm [4] | percent effect (mortality or growth inhibition) at 200 ppm [5] | percent effect (mortality or growth inhibition) at 200 ppm [7] | mortality at 200 ppm [8]

CCS(=O)(=O)c1ccc(-n2cccn2)nc1-n1nc2cc(C(F)(F)F)ncc2c1Cl [Compound P11]
≥ 80%: mortality at 200 ppm [8]
